Reference: US20230085307A1, “PYRIDAZINONE COMPOUND AND HERBICIDE” (NISSAN CHEMICAL CORPORATION, priority 2019, published 2023)

Columns and labels:
[1] = test system: late watergrass; assay: Test Example 1: herbicidal activity, application before weed generation under submerged conditions (Table 16, symbol A); type: in vivo, late watergrass (Echinochloa oryzicola); details: amount of applied herbicide 320 g/ha
Procedure, shortened: (§1)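 Submerged Wagner pots (alluvial soil, 4 cm water) sown with weed seeds and planted with 2.5-leaf rice seedlings; emulsifiable concentrate diluted in water applied to water surface on sowing day. Held in greenhouse at 25-30 °C; injury scored 0-5 by herbicidal rate after three weeks.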

[2] = test system: Japanese bulrush; assay: Test Example 1: herbicidal activity, application before weed generation under submerged conditions (Table 16, symbol B); type: in vivo, Japanese bulrush (Schoenoplectus juncoides); details: amount of applied herbicide 320 g/ha
Procedure, shortened: as §1

[3] = test system: oval-leafed pondweed; assay: Test Example 1: herbicidal activity, application before weed generation under submerged conditions (Table 16, symbol C); type: in vivo, oval-leafed pondweed (Monochoria vaginalis); details: amount of applied herbicide 320 g/ha
Procedure, shortened: as §1

[4] = test system: barnyard grass; assay: Test Example 3: herbicidal effect by foliage application, Wagner pot (Table 18, symbol H); type: in vivo, barnyard grass (Echinochloa crus-galli); details: 320 g/ha
Procedure, shortened: (§2)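 Plants were sown in alluvial soil held under 0.1–0.5 cm standing water and grown 14 days in a greenhouse at 25–30 °C. An emulsifiable formulation, water-diluted to the set dose, was then sprayed onto the foliage, and effects were scored three weeks later using previously defined criteria.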

[5] = test system: Chinese sprangletop; assay: Test Example 3: herbicidal effect by foliage application, Wagner pot (Table 18, symbol D); type: in vivo, chinese sprangletop (Leptochloa chinensis); details: 320 g/ha
Procedure, shortened: as §2

[6] = test system: rice flat sedge; assay: Test Example 3: herbicidal effect by foliage application, Wagner pot (Table 18, symbol E); type: in vivo, rice flat sedge (Cyperus iria); details: 320 g/ha
Procedure, shortened: as §2

[7] = test system: southern crabgrass; assay: Test Example 4: herbicidal effect by soil treatment (Table 19, symbol F); type: in vivo, southern crabgrass (Digitaria ciliaris); details: amount of applied herbicide 320 g/ha
Procedure, shortened: (§3)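 Soil-surface application: an emulsion agent diluted with water to the predetermined dose is sprayed uniformly over seeds lying under roughly 1.5 cm of sterilized diluvial soil. Boxes stay in a greenhouse at 25° C. to 30° C. Three weeks later, each species is graded on previously defined criteria.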

[8] = test system: green foxtail; assay: Test Example 4: herbicidal effect by soil treatment (Table 19, symbol G); type: in vivo, green foxtail (Setaria viridis); details: amount of applied herbicide 320 g/ha
Procedure, shortened: as §3

[9] = test system: barnyard grass; assay: Test Example 4: herbicidal effect by soil treatment (Table 19, symbol H); type: in vivo, barnyard grass (Echinochloa crus-galli); details: amount of applied herbicide 320 g/ha
Procedure, shortened: as §3

[10] = test system: wild oat; assay: Test Example 4: herbicidal effect by soil treatment (Table 19, symbol I); type: in vivo, wild oat (Avena fatua); details: amount of applied herbicide 320 g/ha
Procedure, shortened: as §3

[11] = test system: blackgrass; assay: Test Example 4: herbicidal effect by soil treatment (Table 19, symbol J); type: in vivo, blackgrass (Alopecurus myosuroides); details: amount of applied herbicide 320 g/ha
Procedure, shortened: as §3

[12] = test system: Italian ryegrass; assay: Test Example 4: herbicidal effect by soil treatment (Table 19, symbol K); type: in vivo, Italian ryegrass (Lolium multiflorum); details: amount of applied herbicide 320 g/ha
Procedure, shortened: as §3

[13] = test system: windgrass; assay: Test Example 4: herbicidal effect by soil treatment (Table 19, symbol L); type: in vivo, windgrass (Apera spica-venti); details: amount of applied herbicide 320 g/ha
Procedure, shortened: as §3

[14] = test system: velvetleaf; assay: Test Example 4: herbicidal effect by soil treatment (Table 19, symbol M); type: in vivo, velvetleaf (Abutilon theophrasti); details: amount of applied herbicide 320 g/ha
Procedure, shortened: as §3

[15] = test system: redroot pigweed; assay: Test Example 4: herbicidal effect by soil treatment (Table 19, symbol N); type: in vivo, redroot pigweed (Amaranthus retroflexus); details: amount of applied herbicide 320 g/ha
Procedure, shortened: as §3

[16] = test system: lambsquarters; assay: Test Example 4: herbicidal effect by soil treatment (Table 19, symbol O); type: in vivo, lambsquarters (Chenopodium album); details: amount of applied herbicide 320 g/ha
Procedure, shortened: as §3

[17] = test system: chickweed; assay: Test Example 4: herbicidal effect by soil treatment (Table 19, symbol P); type: in vivo, common chickweed (Stellaria media); details: amount of applied herbicide 320 g/ha
Procedure, shortened: as §3

[18] = test system: false cleavers; assay: Test Example 4: herbicidal effect by soil treatment (Table 19, symbol Q); type: in vivo, false cleavers (Galium spurium); details: amount of applied herbicide 320 g/ha
Procedure, shortened: as §3

[19] = test system: southern crabgrass; assay: Test Example 5: herbicidal effect by foliage application, plastic box (Table 20, symbol F); type: in vivo, southern crabgrass (Digitaria ciliaris); details: amount of applied herbicide 320 g/ha; foliage application after 14-day growth; evaluated three weeks after application
Procedure, shortened: (§4)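 Sow seeds spot-wise in sterilized diluvial soil; cover with ~1.5 cm soil. Grow 14 days in greenhouse, 25° C. to 30° C. Spray foliage with emulsion diluted to predetermined amount. Rate effect after 3 weeks.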

[20] = test system: green foxtail; assay: Test Example 5: herbicidal effect by foliage application, plastic box (Table 20, symbol G); type: in vivo, green foxtail (Setaria viridis); details: amount of applied herbicide 320 g/ha; foliage application after 14-day growth; evaluated three weeks after application
Procedure, shortened: as §4

[21] = test system: barnyard grass; assay: Test Example 5: herbicidal effect by foliage application, plastic box (Table 20, symbol H); type: in vivo, barnyard grass (Echinochloa crus-galli); details: amount of applied herbicide 320 g/ha; foliage application after 14-day growth; evaluated three weeks after application
Procedure, shortened: as §4

[22] = test system: wild oat; assay: Test Example 5: herbicidal effect by foliage application, plastic box (Table 20, symbol I); type: in vivo, wild oat (Avena fatua); details: amount of applied herbicide 320 g/ha; foliage application after 14-day growth; evaluated three weeks after application
Procedure, shortened: as §4

[23] = test system: blackgrass; assay: Test Example 5: herbicidal effect by foliage application, plastic box (Table 20, symbol J); type: in vivo, blackgrass (Alopecurus myosuroides); details: amount of applied herbicide 320 g/ha; foliage application after 14-day growth; evaluated three weeks after application
Procedure, shortened: as §4

[24] = test system: Italian ryegrass; assay: Test Example 5: herbicidal effect by foliage application, plastic box (Table 20, symbol K); type: in vivo, Italian ryegrass (Lolium multiflorum); details: amount of applied herbicide 320 g/ha; foliage application after 14-day growth; evaluated three weeks after application
Procedure, shortened: as §4

[25] = test system: windgrass; assay: Test Example 5: herbicidal effect by foliage application, plastic box (Table 20, symbol L); type: in vivo, windgrass (Apera spica-venti); details: amount of applied herbicide 320 g/ha; foliage application after 14-day growth; evaluated three weeks after application
Procedure, shortened: as §4

[26] = test system: velvetleaf; assay: Test Example 5: herbicidal effect by foliage application, plastic box (Table 20, symbol M); type: in vivo, velvetleaf (Abutilon theophrasti); details: amount of applied herbicide 320 g/ha; foliage application after 14-day growth; evaluated three weeks after application
Procedure, shortened: as §4

[27] = test system: redroot pigweed; assay: Test Example 5: herbicidal effect by foliage application, plastic box (Table 20, symbol N); type: in vivo, redroot pigweed (Amaranthus retroflexus); details: amount of applied herbicide 320 g/ha; foliage application after 14-day growth; evaluated three weeks after application
Procedure, shortened: as §4

[28] = test system: lambsquarters; assay: Test Example 5: herbicidal effect by foliage application, plastic box (Table 20, symbol O); type: in vivo, lambsquarters (Chenopodium album); details: amount of applied herbicide 320 g/ha; foliage application after 14-day growth; evaluated three weeks after application
Procedure, shortened: as §4

[29] = test system: chickweed; assay: Test Example 5: herbicidal effect by foliage application, plastic box (Table 20, symbol P); type: in vivo, common chickweed (Stellaria media); details: amount of applied herbicide 320 g/ha; foliage application after 14-day growth; evaluated three weeks after application
Procedure, shortened: as §4

[30] = test system: persian speedwell; assay: Test Example 5: herbicidal effect by foliage application, plastic box (Table 20, symbol R); type: in vivo, Persian speedwell (Veronica persica); details: amount of applied herbicide 320 g/ha; foliage application after 14-day growth; evaluated three weeks after application
Procedure, shortened: as §4

Row | Compound | Herbicidal effect, A: late watergrass [1] | Herbicidal effect, B: Japanese bulrush [2] | Herbicidal effect, C: oval-leafed pondweed [3] | herbicidal effect on barnyard grass (H) [4] | herbicidal effect on Chinese sprangletop (D) [5] | herbicidal effect on rice flat sedge (E) [6] | Herbicidal effect by foliage application, F: southern crabgrass [19] | Herbicidal effect by foliage application, G: green foxtail [20] | Herbicidal effect by foliage application, H: barnyard grass [21] | Herbicidal effect by foliage application, I: wild oat [22] | Herbicidal effect by foliage application, J: blackgrass [23] | Herbicidal effect by foliage application, K: Italian ryegrass [24] | Herbicidal effect by foliage application, L: windgrass [25] | Herbicidal effect by foliage application, M: velvetleaf [26] | Herbicidal effect by foliage application, N: redroot pigweed [27] | Herbicidal effect by foliage application, O: lambsquarters [28] | Herbicidal effect by foliage application, P: chickweed [29] | Herbicidal effect by foliage application, R: persian speedwell [30] | other results
1 | Cc1nn(C)c(=O)c(-c2c(-c3ccc(C(F)(F)F)cc3)sc3c(C)cccc23)c1O [4-126] | 3 (Herbicidal rate of 40% or more and less than 70%) | 0 (Herbicidal rate of 5% or less (almost no effect)) | 0 (Herbicidal rate of 5% or less (almost no effect)) | 3 (Herbicidal rate of 40% or more and less than 70%) | 0 (Herbicidal rate of 5% or less (almost no effect)) | 3 (Herbicidal rate of 40% or more and less than 70%) | 0 (Herbicidal rate of 5% or less (almost no effect)) | 0 (Herbicidal rate of 5% or less (almost no effect)) | 0 (Herbicidal rate of 5% or less (almost no effect)) | 0 (Herbicidal rate of 5% or less (almost no effect)) | 3 (Herbicidal rate of 40% or more and less than 70%) | 4 (Herbicidal rate of 70% or more and less than 90%) | 0 (Herbicidal rate of 5% or less (almost no effect)) | 5 (Herbicidal rate of 90% or more (almost completely withered)) | 5 (Herbicidal rate of 90% or more (almost completely withered)) | 3 (Herbicidal rate of 40% or more and less than 70%) | 5 (Herbicidal rate of 90% or more (almost completely withered)) | 5 (Herbicidal rate of 90% or more (almost completely withered)) | Herbicidal effect by soil treatment, F: southern crabgrass [7]: 0 (Herbicidal rate of 5% or less (almost no effect)); Herbicidal effect by soil treatment, G: green foxtail [8]: 0 (Herbicidal rate of 5% or less (almost no effect)); Herbicidal effect by soil treatment, H: barnyard grass [9]: 0 (Herbicidal rate of 5% or less (almost no effect)); Herbicidal effect by soil treatment, I: wild oat [10]: 0 (Herbicidal rate of 5% or less (almost no effect)); Herbicidal effect by soil treatment, J: blackgrass [11]: 0 (Herbicidal rate of 5% or less (almost no effect)); Herbicidal effect by soil treatment, K: Italian ryegrass [12]: 1 (Herbicidal rate of 5% or more and less than 20%); Herbicidal effect by soil treatment, L: windgrass [13]: 0 (Herbicidal rate of 5% or less (almost no effect)); Herbicidal effect by soil treatment, M: velvetleaf [14]: 0 (Herbicidal rate of 5% or less (almost no effect)); Herbicidal effect by soil treatment, N: redroot pigweed [15]: 5 (Herbicidal rate of 90% or more (almost completely withered)); Herbicidal effect by soil treatment, O: lambsquarters [16]: 3 (Herbicidal rate of 40% or more and less than 70%); Herbicidal effect by soil treatment, P: chickweed [17]: 4 (Herbicidal rate of 70% or more and less than 90%); Herbicidal effect by soil treatment, Q: false cleavers [18]: 0 (Herbicidal rate of 5% or less (almost no effect))
2 | CCCC(=O)Oc1c(C)nn(C)c(=O)c1-c1c(-c2ccc(F)cc2OCC)sc2cc(F)c(F)cc12 [5-032] | 4 (Herbicidal rate of 70% or more and less than 90%) | 1 (Herbicidal rate of 5% or more and less than 20%) | 0 (Herbicidal rate of 5% or less (almost no effect)) | 4 (Herbicidal rate of 70% or more and less than 90%) | 3 (Herbicidal rate of 40% or more and less than 70%) | 0 (Herbicidal rate of 5% or less (almost no effect)) | 0 (Herbicidal rate of 5% or less (almost no effect)) | 2 (Herbicidal rate of 20% or more and less than 40%) | 4 (Herbicidal rate of 70% or more and less than 90%) | 0 (Herbicidal rate of 5% or less (almost no effect)) | 3 (Herbicidal rate of 40% or more and less than 70%) | 0 (Herbicidal rate of 5% or less (almost no effect)) | 4 (Herbicidal rate of 70% or more and less than 90%) | 4 (Herbicidal rate of 70% or more and less than 90%) | 3 (Herbicidal rate of 40% or more and less than 70%) | 3 (Herbicidal rate of 40% or more and less than 70%) | 5 (Herbicidal rate of 90% or more (almost completely withered)) | 3 (Herbicidal rate of 40% or more and less than 70%) | F: southern crabgrass, herbicidal effect grade [7]: 0 (Herbicidal rate of 5% or less (almost no effect)); G: green foxtail, herbicidal effect grade [8]: 3 (Herbicidal rate of 40% or more and less than 70%); H: barnyard grass, herbicidal effect grade [9]: 0 (Herbicidal rate of 5% or less (almost no effect)); I: wild oat, herbicidal effect grade [10]: 0 (Herbicidal rate of 5% or less (almost no effect)); J: blackgrass, herbicidal effect grade [11]: 3 (Herbicidal rate of 40% or more and less than 70%); K: Italian ryegrass, herbicidal effect grade [12]: 0 (Herbicidal rate of 5% or less (almost no effect)); L: windgrass, herbicidal effect grade [13]: 5 (Herbicidal rate of 90% or more (almost completely withered)); M: velvetleaf, herbicidal effect grade [14]: 1 (Herbicidal rate of 5% or more and less than 20%); N: redroot pigweed, herbicidal effect grade [15]: 4 (Herbicidal rate of 70% or more and less than 90%); O: lambsquarters, herbicidal effect grade [16]: 4 (Herbicidal rate of 70% or more and less than 90%); P: chickweed, herbicidal effect grade [17]: 0 (Herbicidal rate of 5% or less (almost no effect)); Q: false cleavers, herbicidal effect grade [18]: 0 (Herbicidal rate of 5% or less (almost no effect))
